Source: US6680177B2, “Low molecular weight heparin assay, system and reagent therefor” (Cardiovascular Diagnostics, Inc., priority 2001, dated 2004)
Where a SMILES comes first, the peptide text is derived from it. Bridges are numbered along the chain shown (N, C = ends). [ ]: non-standard residue; d: D form. hArg = N=C(N)NCCCC[C@H](N)C(=O)O; Mpa = O=C(O)CCS

System: citrated whole blood (CWB)
Assay: Interference testing for Rapidpoint ENOX test in citrated whole blood
Format: biochemical
Settings: for EFFECT on ENOX test: CWB; for sensitivity of the ENOX test to the agent: in vitro, citrated whole blood

CC(=O)Oc1ccccc1C(=O)O [Aspirin]
EFFECT on ENOX test (0-300 ug/ml): No effect at 0-300 ug/ml | sensitivity of the ENOX test to the agent: insensitive

N=C(N)NCCCC[C@@H]1NC(=O)CCSSC[C@@H](C(N)=O)NC(=O)[C@@H]2CCCN2C(=O)[C@H](Cc2c[nH]c3ccccc23)NC(=O)[C@H](CC(=O)O)NC(=O)CNC1=O [Eptifibatide] ([Mpa][hArg]GDWPC-NH2; disulfide 1-7)
EFFECT on ENOX test (0-2600 ng/ml): No effect at 0-2600 ng/ml | sensitivity of the ENOX test to the agent: insensitive

O=C(c1ccccc1)c1ccc2n1CCC2C(=O)O (centres unmarked) [Ketorolac tromethamine]
EFFECT on ENOX test (0-12 ng/ml): No effect at 0-12 ng/ml

O=[N+]([O-])OCC(CO[N+](=O)[O-])O[N+](=O)[O-] [Nitroglycerin]
EFFECT on ENOX test (0-1000 ng/ml): No effect at 0-1000 ng/ml

CCCCS(=O)(=O)N[C@@H](Cc1ccc(OCCCCC2CCNCC2)cc1)C(=O)O [Tirofiban]
EFFECT on ENOX test (0-5600 ng/ml): No effect at 0-5600 ng/ml | sensitivity of the ENOX test to the agent: insensitive
